Laboratory results published in US20050222126A1, “Antiangiogenic compounds and an assay for inhibitors of cell invasion” (priority 2001, published 2005).
pIC50: −log10 of the molar value. Entries after “also recorded” stand apart in the source; their conditions may differ.

Columns and labels:
[1] = test system: axonal growth cones; assay: Neuronal migration in insect embryo model; format: in vivo; conditions: 5 μM
Experimental: Synthetic dihydromotuporamine (DiH-MPC, 5 μM) affected neuronal migration in a well-characterized insect embryo model. DiH-MPC slowed stereotypical migration of axonal growth cones whose ultimate synaptic targets are in the central nervous system (CNS). […] Therefore, the motuporamines have application in situations where reduced axonal sprouting would be of benefit after CNS wounding. This is of particular interest in spinal cord lesions where wound-induced axonal sprouting and migration (i.e. plasticity) leads to the inappropriate intermingling of neuronal pathways, which is a major impediment to clinically efficacious CNS regeneration.

[2] = test system: MDA 231 cells; assay: Assay for invasion inhibitors (Matrigel, recovery of non-invading cells, MTT); format: cell-based, human; conditions: for pIC50: 2.5 h, read-out: IC50 invasion inhibition
Experimental: Matrigel (Collaborative Biomedical Products, Bedford, Mass.) was diluted 1:1 in ice-cold DMEM/F12 and 50 μl was pipetted into wells of ice-cold 96-well cell culture plates (Falcon) using ice-cold pipette tips, avoiding the sides of each well. The matrix was then allowed to gel and then dry overnight in a dry 37° C. incubator followed by rehydration with 100 μl of growth medium 1 h prior to cell plating. This treatment produces a matrix that is less prone to breakage. On top of the Matrigel, was added 100 μl medium warmed to 37° C., with or without 1 μl of sponge extract dissolved in DMSO, followed by 100 μl medium containing 60,000 MDA 231 cells. Addition of 1 μl of DMSO served as a negative control. 50 μM […] LY294002, a phosphatidylinositol 3-kinase inhibitor known to inhibit invasion, served as a positive control. The cells were then incubated for 2.5 h to allow invasion to take place.
Most of the cell culture, medium was removed without disturbing the cells. This may be accomplished using a hand-held pipettor, but more consistent results are achieved using the aspiration function of a Bio-Tek Elx405 96-well plate washer with the aspiration needle positioned about 2 mm above the surface of the Matrigel. […] The cells were then suspended by pipetting up and down three times using the 100 μl setting of a hand-held pipettor, and 100 μl was withdrawn and transferred to fresh plates without Matrigel containing 100 μl medium supplemented with 30% fetal calf serum to inactivate the trypsin. The cells were then incubated overnight to allow attachment of cells to the plastic surface. Live cells were measured using the MTT assay: the cell culture medium was replaced with 100 μl fresh medium and 25 μl of a 5 mg/ml solution of 3(4,5-dimethylthiazol-2-yl)-2,5-diphenyltetrazolium bromide in phosphate-buffered saline. After 2 hr at 37° C., the solution was removed and 100 μl of 20% sodium dodecyl sulfate dissolved in dimethylformamide: water (1:1) was added to lyse the cells. After overnight incubation at 37° C., absorbance was measured at 570 nm.

[3] = test system: HUVEC; assay: HUVEC migration, modified Boyden chamber assay; format: cell-based, human; conditions: 2.5 μM and 5 μM, VEGF 15 ng/ml
Experimental: (§1) Motuporamine C had no effect on survival of confluent HUVEC at concentrations up to 10 μM and for up to 72 hours. […] Rather, Motuporamine C inhibited HUVEC migration as assessed using a modified Boyden chamber assay.

[4] = test system: MDA 231 cells; assay: Cytotoxicity: cell proliferation after 24 h incubation with compound; format: cell-based, human; conditions: for effects on cell proliferation: 24 h, proliferation followed up to 5 additional days
Experimental: The cytotoxic effects of Motuporamine C were examined by incubating cells in the presence of different concentrations of the compound for 24 h. Motuporamine C was washed away and cell proliferation was measured for up to 5 additional days. […] Likewise, the compounds shown in FIGS. 1, 2, 4, 5, 6, and 8-13 have low cytotoxicity.

[5] = test system: MDA 231 cells; assay: Cell spreading and actin cytoskeleton on tissue culture plastic; format: cell-based, human
Experimental: The cells were plated on rigid tissue culture plastic in the presence of serum, which contains spreading factors (Ham). Under these conditions, most MDA 231 cells spread on the plastic within 4 h in the absence of Motuporamine C. […] These ruffles, which appear black in phase contrast microscopy represent sites of dynamic actin-mediated membrane movement in both spreading and migrating cells. […] These rounded cells remained attached to the tissue culture plastic by small lamellae that had small, discontinuous ruffles.
MDA 231 cells were also pre-spread for 20 hours on tissue culture plastic and then treated with Motuporamine C (5 μM) for 4 hours.

[6] = test system: HUVEC; assay: Endothelial sprouting assay; format: cell-based, human; conditions: VEGF 15 ng/ml
Experimental: Endothelial sprouting was assessed by a modification of Nehls, V. and Drenckham, D. (1995) Microvasc. Res, 50:311-322). Microcarrier beads coated with denatured collagen (Cytodex 3, Sigma) were seeded with HUVEC. When the cells reached confluence an the beads, equal numbers of HUVEC-coated beads were embedded in fibrin gels in 96-well plates. For preparation of fibrin gels, bovine fibrinogen was dissolved in MCDB medium at a concentration of 2.5 mg/ml. Aprotinin was added at a concentration of 0.05 mg/ml and the solution was filtered through a 0.22 μm filter. The fibrinogen solution was supplemented with 15 ng/ml vascular endothelial growth factor (VEGF) with or without Motuporamine C. As a control, fibrinogen solution without VEGF or Motuporamine C was used. […] After 3 days of incubation with daily changes of the medium, the number of capillary-like tubes formed per microcarrier bead (sprouts/bead) was counted by microscopy. Only sprouts greater than 150 μm in length and composed of at least 3 endothelial cells were counted.
In the endothelial sprouting assay, human umbilical vein endothelial cells (HUVEC) are seeded onto collagen-coated beads. Exposure to vascular endothelial growth factor stimulates the formation of capillary-like tubes called sprouts, whose number and length may be measured over time by microscopy.

[7] = test system: Lewis Lung and SCCVII tumours; assay: Tumour growth in vivo; conditions: i.p. daily, 10-15 mg/kg/day, mice
[8] = test system: chick chorioallantoic membrane; assay: Chick chorioallantoic membrane assay (CAM) for angiogenesis; format: in vivo, chicken; conditions: VEGF 30 ng/ml
Experimental: Fertilized white Leghorn chicken eggs were incubated at 37° C. under conditions of constant humidity. On embryonic day 6, the developing chorioallantoic membrane (CAM) was separated form the shell by opening a small circular window at the broad end of the egg above the air sac. After removal of the inner membrane, the opening was sealed with Parafilm and the eggs were incubated for 2 more days. Motuporamine C was prepared in PBS supplemented with 30 ng/ml VEGF. On day 8, 20 μl was loaded onto 2 mm^3 gelatin sponges (Gelfoam, Pharmacia Upjohn) that were placed on the surface of the developing CAM. Sponges containing vehicle alone (20 μl PBS) were used as negative controls whereas sponges containing 20 μl of 30 ng/ml VEGF in PBS were used as positive controls, Eggs were resealed and returned to the incubator. On day 10, images of CAM were captured digitally using an Olympus SZX9 stereomicroscope equipped with a Sport RT digital imaging system (Diagnostics Instruments).

[9] = test system: MDA 231 cells; assay: Cell migration: closure of gap in confluent monolayer; format: cell-based, human; conditions: 5 μM, 24 hours
Experimental: The effects of Motuporamine C on cell spreading and actin ruffling indicates invasion inhibition by decreasing cell migration. A sterile toothpick was drawn across a confluent monolayer of MDA 231 cells, leaving a cell-free gap of about 100 μm. Closure of the gap by cell migration was monitored by microscopy. In the absence of Motuporamine C, cells migrated into the gap and essentially closed it within 24 hours. These cells had broad lamellar ruffles along their leading edges throughout which were condensations of actin. […] These cells had only small and discontinuous ruffles along their leading edges and contained only small discrete patches of actin, looking similar to the “button-like” condensations observed in pre-spread cells.

[10] = test system: HUVEC; assay: HUVEC survival and proliferation; format: cell-based, human
Experimental: as §1

[11] = test system: primary Lewis lung tumour; assay: Development of tumour metastases in vivo; conditions: i.p. 15 mg/kg/day, C57 mice, primary tumour irradiated
Experimental: Primary tumours were grown to a specific size and then irradiated permitting the animals to survive long enough for lung metastases to be quantified.

Compound: NCCCNCCCN1CCCCCCCCCCCCCC1 [DiH-MPC, Dihydromotuporamine C]
- migration of axonal growth cones [1]: slowed
- steering or pathfinding of growth cones [1]: no steering or pathfinding deficits

Compound: NCCCNCCCN1CCCCCCCCCCCC1 [Motuporamine A]
- pIC50 ([2]; MDA 231 cells on Matrigel): 5.52

Compound: NCCCNCCCN1CCCC/C=C\CCCCCCCC1 [Motuporamine C]
- migration of HUVEC towards VEGF [3]: inhibited the migration
- effects on cell proliferation ([4]; 1.6 μM): no detectable effects
- effects on cell proliferation ([4]; 4 and 8 μM): mild inhibition
- cytotoxicity (in words) ([4]; proliferating MDA 231 cells, low micromolar concentrations): little or no toxicity
- cell spreading ([5]; plated on plastic with serum, 4 h, increasing doses up to 5 μM): decreased cell spreading
- rounding of pre-spread cells ([5]; pre-spread 20 hours, 5 μM for 4 hours): did not round-up
- actin cytoskeleton (rhodamine-phalloidin staining) ([5]; pre-spread cells, 5 μM for 4 hours): subtle changes
- rounding of pre-spread cells ([5]; treatment up to 48 hours): did not cause significant cell rounding
- sprout formation in response to VEGF ([6]; 2.5 μM): clear inhibition
- sprout formation in response to VEGF ([6]; 5 μM): complete inhibition
- reduction in tumour growth rate compared to controls [7]: 25-50%
- tumour growth compared to vehicle controls [7]: significant decrease
- angiogenesis in CAM assay [8]: inhibits angiogenesis
- cell migration (gap closure) [9]: slows cell migration
- proliferation rate of HUVEC [10]: does not decrease
- survival of confluent HUVEC ([10]; up to 10 μM, up to 72 hours): no effect
- detachment of cells from the matrix ([2]; 5 μM): did not cause the cells to detach
- activity in the invasion inhibition assay (in words) ([2]; MDA 231 cells on Matrigel): strong activity; also recorded: slightly more active
- concentration that completely inhibited invasion ([2]; MDA 231 cells on Matrigel): 5 µM
- pIC50 ([2]; MDA 231 cells on Matrigel): 6.00
- incidence of lung metastases [11]: decreased incidence

Compound: NCCCNCCCn1c2ccccc2c2ccccc21 [carbazole analog]
- activity in the invasion inhibition assay (in words) ([2]; MDA 231 cells on Matrigel): potent activity
- pIC50 ([2]; MDA 231 cells on Matrigel): 5.52

Compound: C=C1[C@@H](C)[C@H]2[C@H](Cc3ccccc3)NC(=O)[C@]23[C@H](OC(C)=O)/C=C/[C@@](C)(O)C(=O)[C@@H](C)C/C=C/[C@H]3[C@@H]1O [cytochalasin D, reference compound]
- actin cytoskeleton ([5]; 1 μg/ml): complete disassembly of the actin filaments
- rounding of pre-spread cells ([5]; 1 μg/ml): round up completely
